Source: paper PMC6337391 (Molecules, 2019)
Where two headings read alike, the source gives them in different places.

What was measured:
[1] = design: method as in PMID 25798685; conditions: DPPH, cited from earlier work
[2] = design: method as in PMID 25798685; conditions: RP-TLC, methanol/water 70/30, SD < 10%; cited from earlier work
[3] = system: L929 mouse fibroblasts cells; design: method as in PMID 25798685; conditions: 24-h incubation, cited from earlier work
soybean lipoxygenase [4] = target: T1, soybean lipoxygenase (Glycine max, UniProt P08170); design: method as in PMID 25798685; conditions: cited from earlier work
T1 sequence (P08170 1-839): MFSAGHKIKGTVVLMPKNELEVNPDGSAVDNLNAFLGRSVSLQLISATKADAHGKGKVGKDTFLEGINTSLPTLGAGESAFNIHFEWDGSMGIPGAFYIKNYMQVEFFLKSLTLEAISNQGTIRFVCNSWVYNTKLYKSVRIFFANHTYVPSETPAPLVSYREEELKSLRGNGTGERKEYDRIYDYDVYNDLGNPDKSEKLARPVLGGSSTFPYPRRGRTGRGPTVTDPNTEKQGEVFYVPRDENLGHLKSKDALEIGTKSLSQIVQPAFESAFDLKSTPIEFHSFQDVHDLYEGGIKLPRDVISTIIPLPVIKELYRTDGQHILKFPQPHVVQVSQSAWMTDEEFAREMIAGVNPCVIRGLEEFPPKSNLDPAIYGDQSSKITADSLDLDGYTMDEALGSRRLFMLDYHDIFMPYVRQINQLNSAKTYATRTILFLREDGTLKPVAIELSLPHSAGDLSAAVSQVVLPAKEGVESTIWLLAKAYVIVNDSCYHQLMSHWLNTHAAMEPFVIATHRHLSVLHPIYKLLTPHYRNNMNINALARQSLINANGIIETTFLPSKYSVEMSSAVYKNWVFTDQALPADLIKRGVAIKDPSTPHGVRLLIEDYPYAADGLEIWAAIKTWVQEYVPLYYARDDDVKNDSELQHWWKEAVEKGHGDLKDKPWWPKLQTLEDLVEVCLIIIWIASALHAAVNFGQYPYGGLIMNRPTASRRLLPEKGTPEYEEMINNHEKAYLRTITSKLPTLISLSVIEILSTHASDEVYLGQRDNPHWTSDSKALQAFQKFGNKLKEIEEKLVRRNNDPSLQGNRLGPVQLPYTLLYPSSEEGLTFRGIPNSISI

[5] = target: acetyl-cholinesterase (AChE) (Electrophorus electricus, UniProt O42275); conditions: cited from earlier work
Sequence of acetyl-cholinesterase (AChE) (O42275 24-633): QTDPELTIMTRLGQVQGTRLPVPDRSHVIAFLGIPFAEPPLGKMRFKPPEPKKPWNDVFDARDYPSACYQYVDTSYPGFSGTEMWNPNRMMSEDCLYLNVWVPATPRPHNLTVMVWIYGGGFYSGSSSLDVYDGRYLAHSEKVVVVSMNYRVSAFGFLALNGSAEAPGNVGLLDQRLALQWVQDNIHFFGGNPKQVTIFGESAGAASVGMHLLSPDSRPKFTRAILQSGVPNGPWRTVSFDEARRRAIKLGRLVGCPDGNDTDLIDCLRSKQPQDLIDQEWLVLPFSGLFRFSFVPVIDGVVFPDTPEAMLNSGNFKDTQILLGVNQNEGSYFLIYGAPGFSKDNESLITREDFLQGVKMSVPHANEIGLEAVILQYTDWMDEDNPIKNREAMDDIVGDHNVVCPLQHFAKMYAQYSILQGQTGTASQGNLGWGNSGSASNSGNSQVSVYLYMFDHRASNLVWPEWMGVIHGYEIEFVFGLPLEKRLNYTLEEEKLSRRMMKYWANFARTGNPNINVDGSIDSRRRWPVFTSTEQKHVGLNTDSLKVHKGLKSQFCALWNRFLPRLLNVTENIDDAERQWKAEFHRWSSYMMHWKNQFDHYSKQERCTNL

[6] = design: method as in PMID 25798685; conditions: cited from earlier work
[7] = ABTS•+ decolorization assay
Summary of the method: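 Compounds (10 mM DMSO stocks, diluted) added to ABTS•+ radical generated by potassium persulfate oxidation of ABTS. Decolorization followed as absorbance at room temperature, with Trolox as standard.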

[8] = Inhibition of linoleic acid lipid peroxidation (AAPH)
Summary of the method: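 Sodium linoleate oxidation was initiated by AAPH in 0.05 M phosphate buffer, pH 7.4, at 37 °C, with test compound present and DMSO as blank. Conjugated diene hydroperoxide formation was followed as the absorbance increase at 234 nm.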

soybean lipoxygenase [9] = target: T1, soybean lipoxygenase; test: biochemical; type: biochemical; conditions: soybean LOX; for IC50: read-out: LOX IC50
Summary of the method: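 Soybean LOX (enzyme solution 1/9 × 10^−4 w/v in saline) incubated at room temperature with sodium linoleate ([…]) in tris buffer pH 9. Compounds added from DMSO stocks. IC50 derived from several concentrations.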

[10] = Reducing activity with the stable radical DPPH
Summary of the method: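 DPPH (final 0.05 mM) in absolute ethanol mixed with an equal volume of compound at 0.05 or 0.1 mM, ethanol as control. Absorbance at 517 nm read at room temperature after 20 and 60 min, expressed as reducing activity RA%.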

[11] = In vitro lipid peroxidation of liposomes
[12] = Lipophilicity as RM values by RP-TLC; type: physicochemical; design: key: RM = log[(1/Rf) − 1]; conditions: methanol/water 70/30, SD < 10%
Summary of the method: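 Reversed-phase TLC on silica gel plates impregnated with 5% (v/v) liquid paraffin, methanol/water 70/30 (v/v) mobile phase, saturated tanks at 24 °C, UV detection. RM = log[(1/Rf) − 1] from five Rf measurements.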

[13] = system: L929 mouse fibroblasts cells; test: Cytotoxicity, propidium iodide fluorescence method; type: cell-based; conditions: 24-h incubation
Summary of the method: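 L929 cells in EMEM with 10% horse serum were allowed to attach for 24 h, then exposed to 1, 10, 20, 50 and 100 μM compound for 24 h at 37 °C. Cells were detached, stained with propidium iodide, and cell death was measured by flow cytometry.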

Structure (SMILES)	RA% 100 μM 20 min [1]	RA% 100 μM 60 min [1]	RM [2]	1 μM Average (% pi) ± σ [3]	10 μM Average (% pi) ± σ [3]	20 μM Average (% pi) ± σ [3]	50 μM Average (% pi) ± σ [3]	100 μM Average (% pi) ± σ [3]	% LOX Inhb. @ 100 μM (soybean lipoxygenase [4])	% AChE Inhb. @ 100 μM [5]	ABTS•+ Inhb. % @ 100 μM [6]	ABTS•+ Inhb. % @ 100 μM [7]	AAPH% @ 100 μM (anti-lipid peroxidation) [8]	% LOX Inhb. @ 100 μM (soybean lipoxygenase [9])	RA% 100 μM 20 min [10]	RA% 100 μM 60 min [10]	% Inhb. of Liposomes LP @ 100 μM [11]	RM [12]	1 μM Average (% pi) ± σ [13]	10 μM Average (% pi) ± σ [13]	further results
O=C(/C=C/c1cccc2ccccc12)c1ccc(O)cc1 [a4, (E)-1-(4-hydroxyphenyl)-3-(naphthalen-1-yl) prop-2-en-1-one]	7%	3%	−0.26	8.5 ± 2.1%	12 ± 4.2%	29.5 ± 0.6%	51 ± 9.9%	51 ± 9.9%	44%	25%	No										
CN(C)c1ccc(/C=C/C=C/C(=O)c2ccc(OCCOc3ccc(C(=O)/C=C/C=C/c4ccc(N(C)C)cc4)cc3)cc2)cc1 [ei]												98%	71%	77%	No	no	4%	0.56			IC50 (soybean lipoxygenase [9]): 62.5 µM
O=C(/C=C/c1cccc(Oc2ccccc2)c1)c1ccc(O)cc1 [a2, (E)-1-(4-hydroxyphenyl)-3-(3-phenoxyphenyl) prop-2-en-1-one]	3%	4%	0.36	1 ± 0.5%	3.5 ± 0.7%	27.5 ± 8.9%	63 ± 11.2%	63 ± 11.2%	10%	26%	No										
CN(C)c1ccc(/C=C/C=C/C(=O)c2ccc(OCCCCCCCOc3ccc(C(=O)/C=C/C=C/c4ccc(N(C)C)cc4)cc3)cc2)cc1 [evi, (2E,2′E,4E,4′E)-1,1′-((heptane-1,7-diylbis(oxy))bis(4,1-phenylene))bis(5-(4-(dimethylamino)phenyl)penta-2,4-dien-1-one)]												79%	64%	65%	No	no	64%				IC50 (soybean lipoxygenase [9]): 76 µM
CN(C)c1ccc(/C=C/C=C/C(=O)c2ccc(O)cc2)cc1 [a3, (2E,4E)-5-(4-(dimethylamino)phenyl)-1-(4-hydroxyphenyl) penta-2,4-dien-1-one]	18%	17%	−0.69	14 ± 3.5%	15 ± 0.8%	19 ± 1.4%	14 ± 0.7%	14 ± 0.7%	56%	50%	12%										IC50 (soybean lipoxygenase [4]; soybean LOX): 100 µM
Cc1ccc(/C=C/C(=O)c2ccc(OCCCOc3ccc(C(=O)/C=C/c4ccc(C)o4)cc3)cc2)o1 [c12, (2E,2′E)-1,1′-((propane-1,3-diylbis(oxy))bis(4,1-phenylene))bis(3-(5-methylfuran-2-yl)prop-2-en-1-one)]												17%	68%	52%	No	no	74%	−0.96	13.22 ± 0.64%	31.31 ± 4.84%	IC50 (soybean lipoxygenase [9]): 96 µM; 20 μM Average (% pi) ± σ [13]: 53.79 ± 16.95%; 50 μM Average (% pi) ± σ [13]: 84.03 ± 2.25%; 100 μM Average (% pi) ± σ [13]: 84.03 ± 2.25%
CN(C)c1ccc(/C=C/C=C/C(=O)c2ccc(OCCCCCOc3ccc(C(=O)/C=C/C=C/c4ccc(N(C)C)cc4)cc3)cc2)cc1 [eiv, (2E,2′E,4E,4′E)-1,1′-((pentane-1,5-diylbis(oxy))bis(4,1-phenylene))bis(5-(4-(dimethylamino)phenyl)penta-2,4-dien-1-one)]												73%	72%	23%	No	no	77%	0.13			
O=C(/C=C/C=C/c1ccccc1)c1ccc(OCCCOc2ccc(C(=O)/C=C/C=C/c3ccccc3)cc2)cc1 [c7, (2E,2′E,4E,4′E)-1,1′-((propane-1,3-diylbis(oxy))bis(4,1-phenylene))bis(5-phenylpenta-2,4-dien-1-one)]												No	82%	41%	No	no		−0.77	22.5 ± 11.64%	28.73 ± 11.78%	20 μM Average (% pi) ± σ [13]: 25.4 ± 8.42%; 50 μM Average (% pi) ± σ [13]: 28.84 ± 5.62%; 100 μM Average (% pi) ± σ [13]: 28.84 ± 5.62%
O=C(/C=C/c1ccc(OCc2ccc(Br)cc2)cc1)c1ccc(O)cc1 [a1, (E)-3-(4-((4-bromobenzyl)oxy)phenyl)-1-(4-hydroxyphenyl) prop-2-en-1-one]	1%	6%	0.34	1 ± 0.6%	5 ± 2.8%	5.5 ± 0.71%	32 ± 4.9%	32 ± 4.9%	14%	7%	No										
O=C(/C=C/C(Br)=C\c1ccccc1)c1ccc(O)cc1 [a9, (2E,4E)-4-bromo-1-(4-hydroxyphenyl)-5-phenylpenta-2,4-dien-1-one]												No	33%	16%	10%	1%		−0.82	0.55 ± 0.09%	0.59 ± 0.83%	20 μM Average (% pi) ± σ [13]: 2.7 ± 0.68%; 50 μM Average (% pi) ± σ [13]: 7.59 ± 0.13%; 100 μM Average (% pi) ± σ [13]: 7.59 ± 0.13%
Cc1c(C)c2c(c(C)c1O)CCC(C)(C(=O)O)O2 (centres unmarked) [Trolox, reference compound]												96%	93%				69%				
CC(/C=C/C(=O)c1ccc(OCCCOc2ccc(C(=O)/C=C/C(C)=C/c3ccccc3)cc2)cc1)=C\c1ccccc1 [c8, (2E,2′E,4E,4′E)-1,1′-((propane-1,3-diylbis(oxy))bis(4,1-phenylene))bis(4-methyl-5-phenylpenta-2,4-dien-1-one)]												No	75%	26.5%	No	no		−0.85	35.72 ± 10.23%	29.05 ± 9.62%	20 μM Average (% pi) ± σ [13]: 35.69 ± 5.85%; 50 μM Average (% pi) ± σ [13]: 38.7 ± 4.96%; 100 μM Average (% pi) ± σ [13]: 38.7 ± 4.96%
